We go through 1 cell line from the supplement of paper PMC10307832.

What all share (experiment): relative viability (nuclei count vs DMSO), 5 days (fraction); higher = more cells survive
Compound in test [1]: C1=CC2=NC=CN=C2C=C1/C=C/3\C(=O)NC(=O)S3 + Cc1nc(Nc2ncc(C(=O)Nc3c(C)cccc3Cl)s2)cc(N2CCN(CCO)CC2)n1 [Dasatinib] (partner 0.075 µM)
The gist of the method: (§1)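 A single step with final 0.05% Triton X-100, 1% formaldehyde and 1 ug/ml Hoechst fixed the cells and stained nuclei 5 days after treatment. Lung cancer cell lines in 1536-well plates had been treated by pin tool the day after seeding with one drug alone or a fixed anchor-drug dose plus five library-drug doses (not always all listed) in √10 steps, and nuclei were counted on 4× images. Relative viability is the ratio of nuclei in treated wells to nuclei in vehicle wells, taken as the median of duplicate plates.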

Compound in test [2]: C1=CC2=NC=CN=C2C=C1/C=C/3\C(=O)NC(=O)S3 + Nc1nc2[nH]cc(CCc3ccc(C(=O)N[C@@H](CCC(=O)O)C(=O)O)cc3)c2c(=O)[nH]1 [Pemetrexed] (partner 0.2 µM)
The gist of the method: as §1

Compound in the test “BGJ398 + Luminespib”: CCN1CCN(c2ccc(Nc3cc(N(C)C(=O)Nc4c(Cl)c(OC)cc(OC)c4Cl)ncn3)cc2)CC1 [BGJ398] + CCNC(=O)c1noc(-c2cc(C(C)C)c(O)cc2O)c1-c1ccc(CN2CCOCC2)cc1 [Luminespib] (partner 0.01 µM)
The gist of the method:
as §1

Compound in test [3]: C1=CC2=NC=CN=C2C=C1/C=C/3\C(=O)NC(=O)S3 + C[C@@H](Oc1cc(-c2cnn(C3CCNCC3)c2)cnc1N)c1c(Cl)ccc(F)c1Cl [Crizotinib] (partner 1 µM)
The gist of the method: as §1

Take UMC-11: the relative viability in test [1] (first compound 0.02 µM) amounted to 0.467; in test [1] (first compound 0.06325 µM), 0.523; in test [1] (first compound 0.2 µM) it was 0.427; in test [1] (first compound 0.6325 µM) it was 0.489; in test [1] (first compound 2 µM), 0.519; in test [2] (first compound 0.02 µM), 0.775. The relative viability was 0.816 in test [2] (first compound 0.06325 µM); 0.862 in test [2] (first compound 0.2 µM); 0.79 in test [2] (first compound 0.6325 µM); 0.887 in test [2] (first compound 2 µM); 1.02 with BGJ398 + Luminespib (first compound 0.01 µM); 1.08 with BGJ398 + Luminespib (first compound 0.03162 µM). The relative viability with BGJ398 + Luminespib (first compound 0.1 µM) was 0.994; in the test with BGJ398 + Luminespib (first compound 0.3162 µM) it was 0.984; with BGJ398 + Luminespib (first compound 1 µM), 1.01; in test [3] (first compound 0.02 µM), 0.627; in test [3] (first compound 0.06325 µM), 0.572; in test [3] (first compound 0.2 µM) it was 0.557. The values for the relative viability in test [3] (first compound 0.6325 µM) and in test [3] (first compound 2 µM) were 0.603 and 0.722, respectively.
